Literature values, collected in patent US6503496B2, “Non-alcoholic and hypoallergenic face cream for the treatment of razor bumps” (priority 2000, dated 2003).

Assays:
[1] = not given; remark: listed apart in the source

solubility in alkaline solution (alkaline solution)	solubility in water (water)	Compound	toxicity on the skin [1]
soluble	Practically insoluble	Aluminium Polyhydrate	
		O=C([O-])CN(CCN(CC(=O)[O-])CC(=O)O)CC(=O)[O-].[Na+].[Na+].[Na+] [Trisodium EDTA]	No known toxicity
